IC50 data for 24 molecules are collected here from US20050197350A1, “Novel quinoline, tetrahydroquinazoline, and pyrimidine derivatives and methods of treatment related to the use thereof” (TAISHO PHARMACEUTICAL CO., LTD., priority 2003, published 2005).

Counter-ions that a name gives are not always drawn.

The target in one experiment is MCH receptor (Homo sapiens, UniProt Q99705). The experiment is described as follows: High throughput functional screening FLIPR/FDSS6000 (intracellular Ca2+ evoked by MCH). The class given is cell-based. Conditions: FLIPR/FDSS, antagonist activity vs 50 nM MCH; class by percent of control at 10^−7 M or IC50; read-out: class. Summed up: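 For antagonist testing, compound-treated cells (30 min, 37 °C) were stimulated with 50 nM MCH and intracellular Ca2+ followed by Fluo4 fluorescence on FLIPR/FDSS6000. Receptor was a constitutively active, non-endogenous MCH receptor; dye loading 4 μM Fluo4-AM, 1 h, 37 °C.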
Regarding `Cc1cnc(N[C@H]2CC[C@@H](C(=O)N[C@@H](C)c3ccc(Br)cc3)CC2)nc1N(C)C` [Example 3308, cis-N-[(1S)-1-(4-bromophenyl)ethyl]-4-{[4-(dimethylamino)-5-methylpyrimidin-2-yl]amino}cyclohexanecarboxamide], the IC50 is less than 50 nM.

For the molecule `COc1nc(N[C@H]2CC[C@@H](NC(=O)c3cc(Cl)cc(Cl)c3)CC2)ncc1C` [Example 3279, 3,5-dichloro-N-{cis-4-[(4-methoxy-5-methylpyrimidin-2-yl)amino]cyclohexyl}benzamide], the IC50 was greater than 200 nM.

Turning to `Cc1cnc(N[C@H]2CC[C@@H](C(=O)N[C@@H](C)c3ccc(OC(F)(F)F)cc3)CC2)nc1N(C)C` [Example 3302, cis-4-{[4-(dimethylamino)-5-methylpyrimidin-2-yl]amino}-N-{(1S)-1-[4-(trifluoromethoxy)phenyl]ethyl}-cyclohexanecarboxamide], the IC50 was less than 50 nM.

As to `Cc1cnc(NC2CCC(C(=O)N[C@H](C)c3ccccc3C(F)(F)F)CC2)nc1N(C)C` (stereo partly drawn) [Example 3301, 4-{[4-(dimethylamino)-5-methylpyrimidin-2-yl]amino}-N-{(1R)-1-[2-(trifluoromethyl)phenyl]ethyl}cyclohexanecarboxamide], the IC50 was greater than 200 nM.

Take `Cc1cc(N(C)C)nc(N[C@H]2CC[C@@H](NC(=O)c3cccnc3S(=O)(=O)c3ccccc3Br)CC2)n1` [Example 3372, 2-[(2-bromophenyl)sulfonyl]-N-(cis-4-{[4-(dimethylamino)-6-methylpyrimidin-2-yl]amino}cyclohexyl)nicotinamide]: the IC50 was greater than 200 nM.

On to `Cc1cnc(N[C@H]2CC[C@@H](NC(=O)c3cccnc3S(=O)(=O)c3ccc(F)cc3)CC2)nc1N(C)C` [Example 3281, N-(cis-4-{[4-(dimethylamino)-5-methylpyrimidin-2-yl]amino}cyclohexyl)-2-[(4-fluorophenyl)sulfonyl]nicotinamide], for which the IC50 is less than 50 nM.

As to `Cc1cnc(N[C@H]2CC[C@@H](NCC(=O)c3ccc(Cl)cc3)CC2)nc1N(C)C` [Example 3260, 1-(4-chlorophenyl)-2-[(cis-4-{[4-(dimethylamino)-5-methylpyrimidin-2-yl]amino}cyclohexyl)amino]ethanone], the IC50 was in the range of 50 to 200 nM.

For the molecule `COc1nc(N[C@H]2CC[C@@H](NC(=O)c3ccc(OC(F)(F)F)cc3)CC2)ncc1C` [Example 3277, N-{cis-4-[(4-methoxy-5-methylpyrimidin-2-yl)amino]cyclohexyl}-4-(trifluoromethoxy)benzamide], the IC50 was greater than 200 nM.

Consider `Cc1cc(N(C)C)nc(N[C@H]2CC[C@@H](NC(=O)NC(C)(C)c3cc(C(F)(F)F)cc(C(F)(F)F)c3)CC2)n1` [Example 3263, N-{1-[3,5-bis(trifluoromethyl)phenyl]-1-methylethyl}-N′-(cis-4-{[4-(dimethylamino)-6-methylpyrimidin-2-yl]amino}-cyclohexyl)urea], for which the IC50 lay in the range of 50 to 200 nM.

The same experiment, now with this note: FLIPR/FDSS, antagonist activity vs 50 nM MCH; class by percent of control at 10^−7 M or IC50; table after the classification; read-out: class.
On to `Cc1cc(N[C@H]2CC[C@@H](NC(=O)c3cccnc3Oc3ccc(Cl)cc3)CC2)nc2ccccc12` [Example 3093, 2-(4-Chloro-phenoxy)-N-[cis-4-(4-methyl-quinolin-2-ylamino)-cyclohexyl]-nicotinamide hydrochloride], for which the IC50 was less than 50 nM.

On to `N#Cc1cccc(C(=O)N[C@H]2CC[C@@H](Nc3ccc4ccccc4n3)CC2)c1` [Example 3049, 3-Cyano-N-[cis-4-(quinolin-2-ylamino)-cyclohexyl]-benzamide hydrochloride], for which the IC50 was less than 50 nM.

Take `O=C(N[C@H]1CC[C@@H](Nc2ccc3ccccc3n2)CC1)c1cccnc1Oc1ccc(Cl)cc1` [Example 3057, 2-(4-Chloro-phenoxy)-N-[cis-4-(quinolin-2-ylamino)-cyclohexyl]-nicotinamide hydrochloride]: the IC50 is less than 50 nM.

As to `O=C(COc1ccc(Cl)c(Cl)c1)N[C@H]1CC[C@@H](Nc2ccc3ccccc3n2)CC1` [Example 3065, 2-(3,4-Dichloro-phenoxy)-N-[cis-4-(quinolin-2-ylamino)-cyclohexyl]-acetamide hydrochloride], the IC50 was less than 50 nM.

For the molecule `O=C(N[C@H]1CC[C@@H](Nc2ccc3ccccc3n2)CC1)c1cccc(OC(F)(F)F)c1` [Example 3149, N-[cis-4-(Quinolin-2-ylamino)-cyclohexyl]-3-trifluoromethoxy-benzamide hydrochloride], the IC50 lay in the range of 50 to 200 nM.

As for `O=C(N[C@H]1CC[C@@H](Nc2ccc3ccccc3n2)CC1)c1cccnc1Oc1ccccc1` [Example 3032, 2-Phenoxy-N-[cis-4-(quinolin-2-ylamino)-cyclohexyl]-nicotinamide hydrochloride], the IC50 is less than 50 nM.

Regarding `CN(C)c1ccnc(N[C@H]2CC[C@@H](NC(=O)c3ccccn3)CC2)n1` [Example 3208, Pyridine-2-carboxylic acid [cis-4-(4-dimethylamino-pyrimidin-2-ylamino)-cyclohexyl]-amide hydrochloride], the IC50 is greater than 200 nM.

For `Cc1cc(N[C@H]2CC[C@@H](NC(=O)c3cncc(Cl)c3)CC2)nc2ccccc12` [Example 3396, 5-Chloro-N-[cis-4-(4-methyl-quinolin-2-ylamino)-cyclohexyl]-nicotinamide], the IC50 is less than 50 nM.

For `CN(C)c1ccnc(N[C@H]2CC[C@@H](NC(=O)c3ccc(-c4ccc(F)cc4)cc3)CC2)n1` [Example 3200, 4′-Fluoro-biphenyl-4-carboxylic acid [cis-4-(4-dimethylamino-pyrimidin-2-ylamino)-cyclohexyl]-amide hydrochloride], the IC50 is greater than 200 nM.

As to `Cc1cc(N[C@H]2CC[C@@H](NC(=O)c3cccnc3N)CC2)nc2ccccc12` [Example 3161, 2-Amino-N-[cis-4-(4-methyl-quinolin-2-ylamino)-cyclohexyl]-nicotinamide dihydrochloride], the IC50 was 50 to 200 nM.

`CN(C)c1cc(N[C@H]2CC[C@@H](CNC(=O)c3cccnc3Oc3ccccc3)CC2)nc2ccccc12` [Example 3118, N-[cis-4-(4-Dimethylamino-quinolin-2-ylamino)-cyclohexylmethyl]-2-phenoxy-nicotinamide hydrochloride]: the IC50 was greater than 200 nM.

Consider `O=C(N[C@H]1CC[C@@H](Nc2ccc3ccccc3n2)CC1)c1ccc(F)c(Cl)c1` [Example 3038, 3-Chloro-4-fluoro-N-[cis-4-(quinolin-2-ylamino)-cyclohexyl]-benzamide hydrochloride], for which the IC50 is less than 50 nM.

Consider `COc1cccc(C(=O)N[C@H]2CC[C@@H](Nc3ncc(C)c(N(C)C)n3)CC2)c1` [Example 3122, N-[cis-4-(4-Dimethylamino-5-methyl-pyrimidin-2-ylamino)-cyclohexyl]-3-methoxy-benzamide hydrochloride], for which the IC50 is less than 50 nM.

Take `O=C(N[C@H]1CC[C@@H](Nc2ccc3ccccc3n2)CC1)c1cccnc1Oc1ccc(F)c(Cl)c1` [Example 3060, 2-(3-Chloro-4-fluoro-phenoxy)-N-[cis-4-(quinolin-2-ylamino)-cyclohexyl]-nicotinamide hydrochloride]: the IC50 fell in the range of 50 to 200 nM.

`CNc1nc(N[C@H]2CC[C@@H](NC(=O)c3ccc(F)c(Cl)c3)CC2)ncc1C` [Example 3386, 3-Chloro-4-fluoro-N-[cis-4-(5-methyl-4-methylamino-pyrimidin-2-ylamino)-cyclohexyl]-benzamide hydrochloride]: the IC50 is less than 50 nM.
